Test results as given in US20220363667A1 (Nippon Chemiphar Co., Ltd., priority 2018, published 2022).
Structures can show the parent of a compound that is named as a salt.

What follows are compounds tested on SD rats (assay: Rat formalin test). Settings: po, 30 mg/kg orally once, pain behavior time from 15 to 30 minutes after formalin administration vs vehicle group, read-out: Inhibition ratio (pain behavior inhibition ratio).
Type: in vivo
Procedure: 30 mg/kg of a vehicle or a test substance was orally administrated to SD rats once, and according to the method described in McNamara C. R., Mandel-Brehm J., Bautista D. M., Siemens J., Deranian K. L., Zhao M., Hayward N. J., Chong J. A., Julius D., Moran M. M., Fanger C. M.: TRPA1 mediates formalin-induced pain. Proc. Natl. Acad. Sci. U.S.A. 104, 2007, 13525-13530, 50 μL of a 2.0% formalin solution as a pain-inducing substance was subcutaneously administered under the skin of the plantar plate of the right hind limb of each rat.
Regarding the evaluation, the pain behavior inhibition ratio was determined from the pain behavior time of each test substance-administered group with respect to the pain behavior time of the vehicle-administered group for 15 minutes measured from 15 minutes to 30 minutes after the administration.

Row | SMILES | inhibition in vivo at 30 mg/kg
1 | O=C(N[C@@H]1CCN(c2cncc(C(F)(F)F)c2)C1)C1CC1c1cc(Cl)cc(Cl)c1 (single isomer, unassigned) [Example 99A] | < 10%
2 | O=C(N[C@@H]1CCN(c2cncc(C(F)(F)F)c2)C1)C1CC1c1ccc(Br)cc1 (single isomer, unassigned) [Example 100A] | ≥ 20%
3 | O=C(Cc1ccc(C2CC2)cc1)N[C@@H]1CCN(c2cncc(C(F)(F)F)c2)C1 [Example 1, (R)-2-(4-cyclopropylphenyl)-N-(1-(5-(trifluoromethyl)pyridin-3-yl)pyrrolidin-3-yl)acetamide] | ≥ 20%
4 | CC(C)c1ccc(CC(=O)N[C@@H]2CCN(c3cncc(C(F)(F)F)c3)C2)cc1 [Example 4, (R)-2-(4-isopropylphenyl)-N-(1-(5-(trifluoromethyl)pyridin-3-yl)pyrrolidin-3-yl)acetamide] | ≥ 20%
5 | O=C(Cc1ccc(C2CC2)cc1)N[C@H]1CN(c2cncc(C(F)(F)F)c2)C[C@@H]1O [Example 5, 2-(4-Cyclopropylphenyl)-N-((3S,4S)-4-hydroxy-1-(5-(trifluoromethyl)pyridin-3-yl)pyrrolidin-3-yl)acetamide] | ≥ 20%
6 | O=C(Cc1ccc(C2CC2)cc1)N[C@H]1CN(c2nc(C(F)(F)F)cs2)CC12CC2 [Example 8, (R)-2-(4-cyclopropylphenyl)-N-(5-(4-(trifluoromethyl)thiazol-2-yl)-5-azaspiro[2.4]heptan-7-yl)acetamide] | < 10%
7 | O=C(Cc1ccc(C(F)(F)F)cc1)N[C@@H]1CCN(c2cncc(C(F)(F)F)n2)C1 [Example 11, (R)-2-(4-(trifluoromethyl)phenyl)-N-(1-(6-(trifluoromethyl)pyrazin-2-yl)pyrrolidin-3-yl)acetamide] | ≥ 20%
8 | N#Cc1ncc(N2CC[C@@H](NC(=O)Cc3ccc(C4CC4)cc3)C2)cc1C(F)(F)F [Example 12, (R)—N-(1-(6-cyano-5-(trifluoromethyl)pyridin-3-yl)pyrrolidin-3-yl)-2-(4-cyclopropylphenyl)acetamide] | 10 to 20%
9 | O=C(Cc1ccc(N2CCS(=O)(=O)CC2)cc1)N[C@@H]1CCN(c2cncc(C(F)(F)F)c2)C1 [Example 23, (R)-2-(4-(1,1-dioxidethiomorpholino)phenyl)-N-(1-(5-(trifluoromethyl)pyridin-3-yl)pyrrolidin-3-yl)acetamide] | < 10%
10 | N#CC1(NC(=O)Cc2ccc(C3CC3)cc2)CCN(c2cncc(C(F)(F)F)c2)C1 (stereo not drawn) [Example 36, N-(3-cyano-1-(5-(trifluoromethyl)pyridin-3-yl)pyrrolidin-3-yl)-2-(4-cyclopropylphenyl)acetamide] | < 10%
11 | COC(=O)C1(NC(=O)Cc2ccc3cc[nH]c3c2)CCN(c2cncc(C(F)(F)F)c2)C1 (stereo not drawn) [Example 37, Methyl 3-(2-(1H-indol-6-yl)acetamido)-1-(5-(trifluoromethyl)pyridin-3-yl)pyrrolidine-3-carboxylate] | < 10%
12 | O=C(N[C@@H]1CCN(c2cncc(C(F)(F)F)c2)C1)[C@H]1C[C@@H]1c1nc2ccccc2o1 [Example 39, (1S,2S)-2-(benzo[d]oxazol-2-yl)-N—((R)-1-(5-(trifluoromethyl)pyridin-3-yl)pyrrolidin-3-yl)cyclopropane-1-carboxyamide] | ≥ 20%
13 | O=C(N[C@@H]1CCN(c2cncc(C(F)(F)F)c2)C1)[C@H]1C[C@@H]1c1nc2cc(F)ccc2o1 [Example 49, (1S,2S)-2-(5-fluorobenzo[d]oxazol-2-yl)-N—((R)-1-(5-(trifluoromethyl)pyridin-3-yl)pyrrolidin-3-yl)cyclopropane-1-carboxyamide] | ≥ 20%
14 | O=C(N[C@@H]1CCN(c2ccc(C(F)(F)F)nc2)C1)[C@H]1C[C@@H]1c1nc2ccccc2[nH]1 [Example 54, (1S,2S)-2-(1H-benzo[d]imidazol-2-yl)-N—((R)-1-(6-(trifluoromethyl)pyridin-3-yl)pyrrolidin-3-yl)cyclopropane-1-carboxyamide] | < 10%
15 | O=C(N[C@@H]1CCN(c2cnc(C(F)(F)F)nc2)C1)[C@H]1C[C@@H]1c1nc2ccccc2[nH]1 [Example 70, (1S,2S)-2-(1H-benzo[d]imidazol-2-yl)-N—((R)-1-(2-(trifluoromethyl)pyrimidin-5-yl)pyrrolidin-3-yl)cyclopropane-1-carboxyamide] | < 10%
16 | O=C(N[C@@H]1CCN(c2cncc(C(F)(F)F)c2)C1)[C@H]1C[C@@H]1c1nc2ccccc2[nH]1 [Example 71, (1S,2S)-2-(1H-benzo[d]imidazol-2-yl)-N—((R)-1-(5-(trifluoromethyl)pyridin-3-yl)pyrrolidin-3-yl)cyclopropane-1-carboxyamide] | < 10%
17 | O=C(Cc1ccc2ncccc2c1)N[C@@H]1CCN(c2cncc(C(F)(F)F)c2)C1 [Example 77, (R)-2-(quinolin-6-yl)-N-(1-(5-(trifluoromethyl)pyridin-3-yl)pyrrolidin-3-yl)acetamide] | < 10%

Row | SMILES | inhibition in vivo at 30 mg/kg
18 | O=C(Cc1ccc2cccnc2c1)N[C@@H]1CCN(c2cncc(C(F)(F)F)c2)C1 [Example 79, (R)-2-(quinolin-7-yl)-N-(1-(5-(trifluoromethyl)pyridin-3-yl)pyrrolidin-3-yl)acetamide hydrochloride] | < 10%
19 | O=C(Cc1ccc(N2CCC(F)(F)C2)cc1)N[C@@H]1CCN(c2ccc(C(F)(F)F)nc2)C1 [Example 84, (R)-2-(4-(3,3-difluoropyrrolidin-1-yl)phenyl)-N-(1-(6-(trifluoromethyl)pyridin-3-yl)pyrrolidin-3-yl)acetamide] | < 10%
20 | O=C(Cc1ccc2cc[nH]c2c1)N[C@@H]1CCN(c2ccc(C(F)(F)F)nc2)C1 [Example 85, (R)-2-(1H-indol-6-yl)-N-(1-(6-(trifluoromethyl)pyridin-3-yl)pyrrolidin-3-yl)acetamide] | < 10%
21 | CC(C)c1ccc(CC(=O)NC2CCN(c3cncc(C(F)(F)F)c3)CC2)cc1 [Example 109, 2-(4-Isopropylphenyl)-N-(1-(5-(trifluoromethyl)pyridin-3-yl)piperidin-4-yl)acetamide] | ≥ 20%
22 | COc1ncc(N2CC[C@@H](NC(=O)Cc3ccc(C(C)C)cc3)C2)cc1C(F)(F)F [Example 110, (R)-2-(4-isopropylphenyl)-N-(1-(6-methoxy-5-(trifluoromethyl)pyridin-3-yl)pyrrolidin-3-yl)acetamide] | ≥ 20%
23 | CC(C)c1ccc(CC(=O)N[C@@H]2CCN(c3nc(C(F)(F)F)cs3)C2)cc1 [Example 112, (R)-2-(4-isopropylphenyl)-N-(1-(4-(trifluoromethyl)thiazol-2-yl)pyrrolidin-3-yl)acetamide] | ≥ 20%
24 | CC(C)c1ccc(CC(=O)N[C@@H]2CCN(c3ccc(C(F)(F)F)nc3)C2)cc1 [Example 113, (R)-2-(4-isopropylphenyl)-N-(1-(6-(trifluoromethyl)pyridin-3-yl)pyrrolidin-3-yl)acetamide] | 10 to 20%
25 | CC(C)c1ccc(CC(=O)NC2CN(c3cncc(C(F)(F)F)c3)C2)cc1 [Example 117, 2-(4-Isopropylphenyl)-N-(1-(5-(trifluoromethyl)pyridin-3-yl)azetidin-3-yl)acetamide] | ≥ 20%
26 | O=C(Cc1ccc(C2CC2)cc1)N[C@@H]1CCN(c2ccc(C(F)(F)F)nc2)C1 [Example 121, (R)-2-(4-cyclopropylphenyl)-N-(1-(6-(trifluoromethyl)pyridin-3-yl)pyrrolidin-3-yl)acetamide] | < 10%
27 | O=C(Cc1ccc(C(F)(F)F)cc1)N[C@@H]1CCN(c2cncc(C(F)(F)F)c2)C1 [Example 123, (R)-2-(4-(trifluoromethyl)phenyl)-N-(1-(5-(trifluoromethyl)pyridin-3-yl)pyrrolidin-3-yl)acetamide] | ≥ 20%
28 | O=C(Cc1ccc2cc[nH]c2c1)N[C@@H]1CCN(c2cncc(C(F)(F)F)c2)C1 [Example 124, (R)-2-(1H-indol-6-yl)-N-(1-(5-(trifluoromethyl)pyridin-3-yl)pyrrolidin-3-yl)acetamide] | ≥ 20%
29 | CC(C)(O)c1ccc(CC(=O)N[C@@H]2CCN(c3cncc(C(F)(F)F)c3)C2)cc1 [Example 131, (R)-2-(4-(2-hydroxypropan-2-yl)phenyl)-N-(1-(5-(trifluoromethyl)pyridin-3-yl)pyrrolidin-3-yl)acetamide] | < 10%
30 | CC(C)(C(=O)N[C@@H]1CCN(c2cncc(C(F)(F)F)c2)C1)c1ccc(C2CC2)cc1 [Example 135, (R)-2-(4-cyclopropylphenyl)-2-methyl-N-(1-(5-(trifluoromethyl)pyridin-3-yl)pyrrolidin-3-yl)propanamide] | < 10%
31 | NC(C(=O)N[C@@H]1CCN(c2cncc(C(F)(F)F)c2)C1)c1ccc(C2CC2)cc1 (stereo partly drawn) [Example 137, 2-amino-2-(4-cyclopropylphenyl)-N—((R)-1-(5-(trifluoromethyl)pyridin-3-yl)pyrrolidin-3-yl)acetamide] | ≥ 20%
32 | O=C(Cc1ccc(C(F)(F)F)cc1F)N[C@@H]1CCN(c2cncc(C(F)(F)F)c2)C1 [Example 141, (R)-2-(2-fluoro-4-(trifluoromethyl)phenyl)-N-(1-(5-(trifluoromethyl)pyridin-3-yl)pyrrolidin-3-yl)acetamide] | < 10%
33 | O=C(Cc1ccc(N2CCOCC2)cc1)N[C@@H]1CCN(c2cncc(C(F)(F)F)c2)C1 [Example 181, (R)-2-(4-morpholinophenyl)-N-(1-(5-(trifluoromethyl)pyridin-3-yl)pyrrolidin-3-yl)acetamide] | ≥ 20%
